# Assay results: patent US20060247233A1, “Thiazoles inhibitors of the alk-5 receptor” (priority 2003, published 2006)
# How the values were obtained:
# [1] = test system: HepG2 cells stably transfected with the PAI-1 promoter linked to a luciferase (firefly) reporter gene, exposed to TGF-β; assay: Assay 1 (Cellular Transcriptional Assay): TGF-β induced PAI-1 promoter luciferase reporter; settings: for IC50: Homo sapiens, HepG2, read-out: TGF-β cellular activity (IC50)
# Experimental: The assay was performed in HepG2 cells stably transfected with the PAI-1 promoter (known to be a strong TGF-β responsive promoter) linked to a luciferase (firefly) reporter gene. The compounds were selected on their ability to inhibit luciferase activity in cells exposed to TGF-β. In addition, cells were transfected with a second luciferase (Renilla) gene which was not driven by a TGF-β responsive promoter and was used as a toxicity control.
# 96 well microplates were seeded, using a multidrop apparatus, with the stably transfected cell line at a concentration of 35000 cells per well in 200 μl of serum-containing medium. These plates were placed, in a cell incubator.
# 18 to 24 hours later (Day 2), cell-incubation procedure was launched: Cells were incubated with TGF-β and a candidate compound at concentrations in the range 50 nM to 10 μM (final concentration of DMSO 1%). The final concentration of TGF-β (rhTGFβ-1) used in the test was 1 ng/mL. […] The final volume of the test reaction was 150 μl. Each well contained only one candidate compound and its effect on the PAI-1 promoter was monitored.
# Columns 11 and 12 were employed as controls. Column 11 contained 8 wells in which the cells were incubated in the presence of TGF-β, without a candidate compound. Column 11 was used to determine the ‘reference TGF-β induced firefly luciferase value’ against which values measured in the test wells (to quantify inhibitory activity) were compared. In wells A12 to D12, cells were grown in medium without TGF-β. […]
# 12 to 18 hours later (day 3), the luciferase quantification procedure was launched. […] Following agitation (15 to 30 mins), luciferase activities of the plates were read in a dual-injector luminometer (BMG lumistar). For this purpose, 50 μl of luciferase assay reagent and 50 μl of ‘Stop & Glo’ buffer were injected sequentially to quantify the activities of both luciferases. […] For each of the compounds tested, a concentration response curve was constructed from which an IC50 value was determined graphically.
# [2] = target: T1, recombinant GST-ALK5 (residues 198-503) (Homo sapiens, UniProt P36897); assay: Assay 2 (Alk5 Fluorescence Polarization Assay); assay type: binding; settings: rhodamine green-labelled ligand 1 nM, ALK5 10 nM, read-out: ALK5 receptor modulator activity (IC50)
# T1 construct: assays using recombinant GST-ALK5 (residues 198-503); GST (N)
# T1 sequence (P36897 198-503): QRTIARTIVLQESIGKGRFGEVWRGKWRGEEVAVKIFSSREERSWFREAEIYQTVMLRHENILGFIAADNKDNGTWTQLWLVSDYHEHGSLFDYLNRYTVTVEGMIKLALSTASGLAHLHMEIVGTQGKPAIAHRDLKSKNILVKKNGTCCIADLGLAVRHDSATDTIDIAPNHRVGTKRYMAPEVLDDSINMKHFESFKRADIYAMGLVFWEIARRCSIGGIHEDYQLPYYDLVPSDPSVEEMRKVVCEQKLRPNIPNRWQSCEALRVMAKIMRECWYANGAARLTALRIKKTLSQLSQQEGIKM
# Experimental: Assay 2 (Alk5 Fluorescence Polarization Assay)
# Kinase inhibitor compounds conjugated to fluorophores, can be used as fluorescent ligands to monitor ATP competitive binding of other compounds to a given kinase. The increase in depolarization of plane polarized light, caused by release of the bound ligand into solution, is measured as a polarization/anisotropy value. This protocol details the use of a rhodamine green-labelled ligand for assays using recombinant GST-ALK5 (residues 198-503).
# Assay buffer components: 62.5 mM Hepes pH 7.5 (Sigma H-4034), 1 mM DTT (Sigma D-0632), 12.5 mM MgCl2 (Sigma M-9272), 1.25 mM CHAPS (Sigma C-3023). […]
# ALK5 was added to assay buffer containing the above components and 1 nM of the rhodamine green-labelled ligand so that the final ALK5 concentration was 10 nM based on active site titration of the enzyme. […] The plates were read immediately on a UL Acquest fluorescence reader (Molecular Devices, serial number AQ1048) with excitation, emission, and dichroic filters of 485 nm, 530 nm, and 505 nm, respectively. The fluorescence polarization for each well was calculated by the Acquest reader and then imported into curve fitting software for construction of concentration response curves. The normalized response was determined relative to the high controls (1 μl DMSO in column 12, rows […]) and the low controls (1 μl of control compound in column 12, rows E-H). […]
IC50 [2] [nM],melting point [°C],IC50 [1] [nM],Structure (SMILES),"firefly and renilla luciferase activities, relative to TGF-β only wells ([1]; 500 μM, in the presence of TGF-β, toxicity control)"
–,–,–,"O=C1C=CCC1 [CPO, Cyclopentenone, reference compound]",around 50%
16,244 to 246,11,"Cc1cccc(-c2nc(N)sc2-c2ccc3ncn(C)c3c2)n1 [Example 1, 5-(1-methyl-benzimidazol-6-yl)-4-(6-methylpyridin-2-yl)-1,3-thiazol-2-amine]",–
–,188 to 190,–,"Cc1cccc(-c2sc(N)nc2-c2ccc3ncoc3c2)n1 [Example 2, 4-(benzoxazol-6-yl)-5-(6-methyl-pyridin-2-yl)-1,3-thiazol-2-amine]",–
–,218 to 220,–,"CCn1cnc2ccc(-c3sc(N)nc3-c3cccc(C)n3)cc21 [Example 3, 5-(1-ethyl-benzimidazol-6-yl)-4-(6-methylpyridin-2-yl)-1,3-thiazol-2-amine]",–
–,200 to 202,–,"COCCn1cnc2ccc(-c3sc(N)nc3-c3cccc(C)n3)cc21 [Example 4, 5-(1-(2-methoxyethyl)-benzimidazol-6-yl)-4-(6-methylpyridin-2-yl)-1,3-thiazol-2-amine]",–
–,240 to 242,–,"Cc1cccc(-c2nc(N)sc2-c2ccc3c(c2)N(C)C(=O)CO3)n1 [Example 5, 5-[4-methyl-4H-benzo[1,4]oxazin-3-one-6-yl]-4-(6-methylpyridin-2-yl)-1,3-thiazol-2-amine]",–
27,228 to 230,104,"CCN1C(=O)COc2ccc(-c3sc(N)nc3-c3cccc(C)n3)cc21 [Example 6, 5-[4-ethyl-4H-benzo[1,4]oxazin-3-one-6-yl]-4-(6-methylpyridin-2-yl)-1,3-thiazol-2-amine]",–
–,170 to 172,–,"Cc1cccc(-c2sc(N)nc2-c2ccc3c(c2)OCO3)n1 [Example 7, 4-(Benzo[1,3]dioxol-5-yl)-5-(6-methylpyridin-2-yl)-1,3-thiazol-2-amine]",–
–,214,–,"Nc1nc(-c2ccc3c(c2)OCCO3)c(-c2ccccn2)s1 [Example 8, 4-(Benzodioxan-6-yl)-5-(Pyridin-2-yl)-1,3-thiazol-2-amine]",–
–,226,–,"Nc1nc(-c2ccc3ncccc3c2)c(-c2ccccn2)s1 [Example 9, 4-(Quinolin-6-yl)-5-(pyridin-2-yl)-1,3-thiazol-2-amine]",–
